# From patent publication US8058269B2, “Oxindole derivatives” (Hoffman-La Roche Inc., priority 2006, dated 2011)
# Target: interaction between p53 and MDM2 proteins (Homo sapiens, UniProt Q00987)
# Test: HTRF assay of inhibition of the p53-MDM2 interaction (GST-MDM2 / biotinylated p53 peptide)
# Type: binding
# Settings: recombinant GST-tagged MDM2 and biotinylated p53 peptide, 0.02% BSA
# Description: In a […], the ability of the compounds to inhibit the interaction between p53 and MDM2 proteins was measured. The ability of the compounds to inhibit the interaction between p53 and MDM2 proteins was measured by an HTRF (homogeneous time-resolved fluorescence) assay in which recombinant GST-tagged MDM2 binds to a peptide that resembles the MDM2-interacting region of p53 (Lane et al.). Binding of GST-MDM2 protein and p53-peptide (biotinylated on its N-terminal end) is registered by the FRET (fluorescence resonance energy transfer) between Europium (Eu)-labeled anti-GST antibody and streptavidin-conjugated Allophycocyanin (APC). […]
# Chain of interaction between p53 and MDM2 proteins (Q00987 whole entry): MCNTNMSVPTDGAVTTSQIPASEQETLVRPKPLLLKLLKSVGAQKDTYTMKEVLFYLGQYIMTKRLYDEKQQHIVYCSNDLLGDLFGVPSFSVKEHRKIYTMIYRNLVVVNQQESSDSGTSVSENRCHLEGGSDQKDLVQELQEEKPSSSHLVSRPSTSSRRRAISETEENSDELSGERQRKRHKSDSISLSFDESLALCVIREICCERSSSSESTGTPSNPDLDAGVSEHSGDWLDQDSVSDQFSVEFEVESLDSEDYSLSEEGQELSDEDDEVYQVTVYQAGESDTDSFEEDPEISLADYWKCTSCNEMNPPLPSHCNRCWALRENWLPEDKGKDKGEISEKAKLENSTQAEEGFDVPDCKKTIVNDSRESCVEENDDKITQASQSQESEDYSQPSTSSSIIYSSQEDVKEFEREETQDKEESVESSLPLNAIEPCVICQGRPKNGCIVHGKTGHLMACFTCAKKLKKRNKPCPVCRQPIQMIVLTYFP
row,IC50,Structure (SMILES)
1,3.68 nM,"O=C1Nc2cc(Cl)ccc2C1(Cc1cccc(Cl)c1)N1CCCC(O)C1 (racemic) [Example 62, rac-6-chloro-3-(3-chloro-benzyl)-3-(3-hydroxy-piperidin-1-yl)-1,3-dihydro-indol-2-one]"
2,2.56 nM,"O=C1Nc2cc(Cl)ccc2C1(Cc1cccc(Cl)c1)Nc1cccc(OC(F)F)c1 (racemic) [Example 19, rac-6-chloro-3-(3-chloro-benzyl)-3-(3-difluoromethoxy-phenylamino)-1,3-dihydro-indol-2-one]"
3,2.54 nM,"O=C1Nc2cc(Cl)ccc2C1(Cc1cccc(Cl)c1)NC1CCC1 (racemic) [Example 49, rac-6-chloro-3-(3-chloro-benzyl)-3-cyclobutylamino-1,3-dihydro-indol-2-one]"
4,3.73 nM,"O=C1Nc2cc(Cl)ccc2C1(Cc1cccc(Cl)c1)Nc1ccc(Br)cc1F (racemic) [Example 11, rac-3-(4-bromo-2-fluoro-phenylamino)-6-chloro-3-(3-chloro-benzyl)-1,3-dihydro-indol-2-one]"
